Each structure is given as a SMILES string.

For the assay, the system named is Kuramochi cells. The assay can be described thus: BrdU Cell Proliferation Assay. The format is cell-based. To be noted: read-out: BrdU - KURAMOCHI.1: IC50. An outline of the steps:
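Signal is 450 nm absorbance from a peroxidase anti-BrdU ELISA after a 1-hour BrdU label, background-subtracted and normalized to DMSO-treated wells. Kuramochi cells (2,000 per well) had been exposed to compound for 4 days. Dosing used a 10-point dose response in 3-fold steps.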
For orientation: IC50 means the concentration at which inhibition is half-maximal. For the compound `CNC(=O)[C@@H](NC(=O)[C@@H]1CN(Cc2cnco2)CC12CN(C(=O)[C@H]1CC1(C)C)C2)[C@@H](C)OCc1ccccc1` [I-78A, (S)—N-((2S,3R)-3-(benzyloxy)-1-(methylamino)-1-oxobutan-2-yl)-2-((S)-2,2-dimethylcyclopropane-1-carbonyl)-6-(oxazol-5-ylmethyl)-2,6-diazaspiro[3.4]octane-8-carboxamide], the IC50 is over 10 µM.

With `CNC(=O)[C@@H](NC(=O)[C@@H]1CN(S(=O)(=O)c2cnn(Cc3ccccc3)c2)CC12CN(C(=O)[C@H]1CC1(C)C)C2)[C@@H](C)OCc1ccccc1` [I-79A], the IC50 was over 10 µM.

As for `C[C@@H](OCc1ccccc1)[C@H](NC(=O)C1CN(C(=O)c2cnn(Cc3ccccc3)c2)CC12CN(C(=O)[C@H]1CC1(C)C)C2)C(=O)N1CCOCC1` (some centres unmarked) [I-86], the IC50 is over 10 µM.

Turning to `COC(=O)C1(NC(=O)[C@@H]2CN(C(=O)c3cnn(Cc4ccccc4)c3)CC23CN(C(=O)[C@H]2CC2(C)C)C3)COC1` [I-142B], the IC50 is over 10 µM.

Regarding `CNC(=O)[C@@H](NC(=O)[C@@H]1CN(C(=O)c2cnn(Cc3ccccc3)c2)CC12CN(C(=O)C(C)C)C2)[C@@H](C)OCc1ccccc1` [I-54A], the IC50 was over 10 µM.

Regarding `CNC(=O)[C@H](CSCc1ccccc1)NC(=O)[C@@H]1CN(C(=O)c2cnn(Cc3ccccc3)c2)CC12CN(C(=O)[C@H]1CC1(C)C)C2` [I-225], the 50% inhibitory concentration (IC50) was over 10 µM.

Consider `CNC(=O)[C@@H](NC(=O)[C@@H]1CN(C(=O)c2cnn(Cc3ccccc3)c2)CC12CN(C(=O)C1(CC3CC3)CC1)C2)[C@@H](C)OCc1ccccc1` [I-116A], for which the IC50 was over 10 µM.

`CC1(C)C[C@@H]1C(=O)N1CC2(CN(C(=O)c3cnn(Cc4ccccc4)c3)C[C@H]2C(=O)N[C@H]2CCCN(C(=O)c3ccccc3)C2)C1` [I-83A]: the IC50 was over 10 µM.

Consider `CNC(=O)[C@@H](NC(=O)[C@H]1CN(C(=O)c2cncs2)CC12CN(C(=O)C(C)(C)C)C2)[C@@H](C)OCC1CCCCC1` [I-186B], for which the IC50 was over 10 µM.

As for `CC1(C)C[C@@H]1C(=O)N1CC2(CN(C(=O)c3cnn(Cc4ccccc4)c3)C[C@H]2C(=O)N2CC[C@@H](OCC3CCCCC3)C2)C1` [I-235], the IC50 is over 10 µM.

On to `CNC(=O)[C@@H](NC(=O)[C@@H]1CN(Cc2cnn(C)c2)CC12CN(C(=O)[C@H]1CC1(C)C)C2)[C@@H](C)OCc1ccccc1` [I-47A], for which the IC50 was over 10 µM.

With `CNC(=O)[C@H](COCc1ccccc1)NC(=O)[C@@H]1CN(C(=O)c2cnn(Cc3ccccc3)c2)CC12CN(C(=O)C1(C(F)(F)F)CC1)C2` [I-113A, (S)-6-(1-benzyl-1H-pyrazole-4-carbonyl)-N—((S)-3-(benzyloxy)-1-(methylamino)-1-oxopropan-2-yl)-2-(1-(trifluoromethyl)cyclopropane-1-carbonyl)-2,6-diazaspiro[3.4]octane-8-carboxamide], the IC50 was over 10 µM.

Turning to `CNC(=O)[C@@H](NC(=O)[C@@H]1CN(C(=O)c2cnn(Cc3ccccc3)c2)CC12CN(C(=O)[C@H]1CC1(C)C)C2)[C@@H](C)O` [I-88A, (S)-6-(1-benzyl-1H-pyrazole-4-carbonyl)-2-((S)-2,2-dimethylcyclopropane-1-carbonyl)-N-((2S,3R)-3-hydroxy-1-(methylamino)-1-oxobutan-2-yl)-2,6-diazaspiro[3.4]octane-8-carboxamide], the IC50 is over 10 µM.

As to `CC1(C)C[C@@H]1C(=O)N1CC2(CN(C(=O)c3cnn(Cc4ccccc4)c3)C[C@@H]2C(=O)N2CCC(Cc3ccccc3)CC2)C1` [I-58B], the IC50 was over 10 µM.

Take `CNC(=O)[C@@H](NC(=O)[C@H]1CN(C(=O)c2scnc2C)CC12CN(C(=O)[C@H]1CC1(C)C)C2)[C@@H](C)OCC1CCCCC1` [I-160B]: the IC50 is over 10 µM.

For `CO[C@H]1COCC[C@@H]1NC(=O)[C@H]1CN(C(=O)c2cnn(Cc3ccccc3)c2)CC12CN(C(=O)[C@H]1CC1(C)C)C2` [I-148B], the IC50 was over 10 µM.

Take `COC(=O)C1(NC(=O)[C@H]2CN(C(=O)c3cnn(Cc4ccccc4)c3)CC23CN(C(=O)[C@H]2CC2(C)C)C3)COC1` [I-142A]: the IC50 was over 10 µM.

As to `C[C@@H](OCC1CCCCC1)[C@H](NC(=O)[C@@H]1CN(C(=O)c2ccn[nH]2)CC12CN(C(=O)[C@H]1CC1(C)C)C2)C(=O)N1CCCCC1` [I-216], the 50% inhibitory concentration (IC50) was over 10 µM.

In the case of `CNC(=O)[C@@H](NC(=O)[C@@H]1CN(C(=O)c2cnn(Cc3ccccc3)c2)CC12CN(C(=O)[C@H]1CC1(C)C)C2)[C@@H](C)OCC1CCC(F)(F)CC1` [I-202], the IC50 is 0.5 to 5 µM.

For the compound `C[C@@H](OCC1CCC(F)(F)CC1)[C@H](NC(=O)[C@H]1CN(C(=O)c2cn[nH]c2)CC12CN(C(=O)[C@H]1CC1(C)C)C2)C(=O)N1CCC(F)(F)CC1` [I-228B], the IC50 is over 10 µM.

With `CNC(=O)[C@@H](NC(=O)[C@H]1CN(C(=O)c2scnc2C(F)(F)F)CC12CN(C(=O)[C@H]1CC1(C)C)C2)[C@@H](C)OCC1CCCCC1` [I-163B], the IC50 is over 10 µM.

For `CC1(C)C[C@@H]1C(=O)N1CC2(CN(C(=O)c3cnn(Cc4ccccc4)c3)C[C@H]2C(=O)N2CCC(OCc3ccccc3)CC2)C1` [I-214], the IC50 was over 10 µM.

In the case of `C[C@@H](OCC1CCCCC1)[C@H](NC(=O)[C@H]1CN(C(=O)c2cn[nH]c2)CC12CN(C(=O)[C@H]1CC1(C)C)C2)C(=O)N1CCC(F)(F)CC1` [I-154B], the concentration for half-maximal inhibition (IC50) is over 10 µM.

Turning to `CNC(=O)[C@@H](NC(=O)[C@H]1CN(C(=O)c2cnn(Cc3ccccc3)c2)CC12CN(C(=O)[C@H]1CC1(C)C)C2)[C@@H](C)OCC1CCOCC1` [I-119B], the IC50 was over 10 µM.

For `CC1(C)C[C@@H]1C(=O)N1CC2(CN(C(=O)c3cnn(Cc4ccccc4)c3)C[C@H]2C(=O)N[C@H]2CCN(C3CC3)C2=O)C1` [I-243], the IC50 is over 10 µM.

As to `CNC(=O)[C@@H](NC(=O)[C@@H]1CN(C(=O)C2CCNC2)CC12CN(C(=O)[C@H]1CC1(C)C)C2)[C@@H](C)OCc1ccccc1` (stereo partly drawn) [I-70A, (8S)—N-((2S,3R)-3-(benzyloxy)-1-(methylamino)-1-oxobutan-2-yl)-2-((S)-2,2-dimethylcyclopropane-1-carbonyl)-6-(pyrrolidine-3-carbonyl)-2,6-diazaspiro[3.4]octane-8-carboxamide], the IC50 was over 10 µM.

Regarding `CC1(C)C[C@@H]1C(=O)N1CC2(CN(C(=O)c3cnn(Cc4ccccc4)c3)C[C@@H]2C(=O)Nc2cccc(Cc3ccccc3)c2)C1` [I-75B], the IC50 is over 10 µM.

Turning to `CNC(=O)[C@@H](NC(=O)[C@@H]1CN(C(=O)c2cccnc2)CC12CN(C(=O)[C@H]1CC1(C)C)C2)[C@@H](C)OCc1ccccc1` [I-42A], the IC50 is over 10 µM.

On to `CNC(=O)[C@@H](NC(=O)[C@H]1CN(C(=O)c2cnn(Cc3ccccc3)c2)CC12CN(C(=O)CC1(CO)CC1)C2)[C@@H](C)OCc1ccccc1` [I-92B], for which the IC50 was over 10 µM.

`CNC(=O)[C@@H](NC(=O)[C@@H]1CN(C(=O)c2cnn(Cc3ccccc3)c2)CC12CN(C(=O)CC(C)(C)C)C2)[C@@H](C)OCc1ccccc1` [I-62A]: the IC50 was over 10 µM.

With `CC1(C)C[C@@H]1C(=O)N1CC2(CN(C(=O)c3cnn(Cc4ccccc4)c3)C[C@@H]2C(=O)Nc2cccc(-c3ccccc3)c2)C1` [I-63B], the IC50 is over 10 µM.

For the compound `CNC(=O)[C@@H](NC(=O)C1CN(C(=O)c2cnn(Cc3cccnc3)c2)CC12CN(C(=O)C1CC1(C)C)C2)[C@@H](C)OCc1ccccc1` (some centres unmarked) [I-15], the IC50 was over 10 µM.

With `CNC(=O)[C@@H](NC(=O)[C@@H]1CN(C(=O)c2cnn(Cc3ccccc3)c2)CC12CN(C(=O)C(C)(C)C#N)C2)[C@@H](C)OCc1ccccc1` [I-76A], the IC50 is over 10 µM.

As for `C[C@@H](OCC1CCC(F)(F)CC1)[C@H](NC(=O)[C@@H]1CN(C(=O)c2cn[nH]c2)CC12CN(C(=O)C1(C(F)(F)F)CC1)C2)C(=O)N1CCC(F)(F)CC1` [I-188A], the IC50 was over 10 µM.

Consider `CNC(=O)[C@@H](NC(=O)[C@H]1CN(C(=O)c2cnn(CC3CCN(C(C)=O)CC3)c2)CC12CN(C(=O)[C@H]1CC1(C)C)C2)[C@@H](C)OCc1ccccc1` [I-17B], for which the IC50 was over 10 µM.

On to `CNC(=O)[C@@H](NC(=O)[C@H]1CN(C(=O)c2cnn(Cc3ccccc3)c2)CC12CN(C(=O)C1(CCF)CC1)C2)[C@@H](C)OCc1ccccc1` [I-117B], for which the IC50 is over 10 µM.

Consider `CNC(=O)[C@@H](NC(=O)[C@H]1CN(C(=O)c2cnn(Cc3ccccc3)c2)CC12CN(C(=O)C1CC1(C)C)C2)[C@@H](C)O` (some centres unmarked) [I-88B], for which the IC50 is over 10 µM.

For the compound `CNC(=O)[C@@H](NC(=O)[C@H]1CN(S(=O)(=O)c2cnn(Cc3ccccc3)c2)CC12CN(C(=O)[C@H]1CC1(C)C)C2)[C@@H](C)OCc1ccccc1` [I-79B], the concentration for half-maximal inhibition (IC50) is over 10 µM.

Take `CC1(C)C[C@@H]1C(=O)N1CC2(CN(C(=O)c3cnn(Cc4ccccc4)c3)C[C@H]2C(=O)NC2CCN(C(=O)c3ccccc3)CC2)C1` [I-61A]: the IC50 is over 10 µM.

Regarding `COC(=O)[C@H](CO)NC(=O)[C@@H]1CN(C(=O)c2cnn(Cc3ccccc3)c2)CC12CN(C(=O)[C@H]1CC1(C)C)C2` [I-209A], the IC50 was over 10 µM.

With `CNC(=O)[C@H](CCCC1CCCCC1)NC(=O)[C@@H]1CN(C(=O)c2cnn(Cc3ccccc3)c2)CC12CN(C(=O)[C@H]1CC1(C)C)C2` [I-155A], the IC50 is over 10 µM.

Regarding `COc1cccc(CNC(=O)[C@@H]2CN(C(=O)c3cnn(Cc4ccccc4)c3)CC23CN(C(=O)[C@H]2CC2(C)C)C3)n1` [I-126A], the half-maximal inhibitory concentration (IC50) is over 10 µM.

On to `CC1(C)C[C@@H]1C(=O)N1CC2(CN(C(=O)c3cnn(Cc4ccccc4)c3)CC2C(=O)Nc2ncc(-c3ccccc3)o2)C1` (some centres unmarked) [I-93], for which the concentration for half-maximal inhibition (IC50) was over 10 µM.

`CNC(=O)[C@@H](NC(=O)[C@@H]1CN(C(=O)c2cnn(Cc3ccccc3)c2)CC12CN(C(=O)c1ccccc1)C2)[C@@H](C)OCc1ccccc1` [I-26A]: the IC50 is over 10 µM.

For the compound `CNC(=O)[C@@H](NC(=O)[C@H]1CN(C(=O)c2cnn(CC3CCN(C)CC3)c2)CC12CN(C(=O)[C@H]1CC1(C)C)C2)[C@@H](C)OCc1ccccc1` [I-23B], the IC50 was over 10 µM.

Consider `CNC(=O)[C@@H](NC(=O)[C@H]1CN(C(=O)c2sc(Cl)nc2Cl)CC12CN(C(=O)[C@H]1CC1(C)C)C2)[C@@H](C)OCC1CCCCC1` [I-232B], for which the IC50 was over 10 µM.

As for `COCCNC(=O)[C@H]1CN(C(=O)c2cnn(Cc3ccccc3)c2)CC12CN(C(=O)[C@H]1CC1(C)C)C2` [I-122B], the concentration for half-maximal inhibition (IC50) was over 10 µM.

The values are drawn from patent publication US12065445B2, “CDK2 inhibitors and methods of using the same” (Cedilla Therapeutics, Inc., priority 2021, dated 2024).
